Measurements: ChEMBL document CHEMBL4184323, “Structure-Guided Design, Synthesis, and Characterization of Next-Generation Meprin β Inhibitors” (J Med Chem, 2018)

Legend:
[1] = Drug absorption in Sprague-Dawley rat at 10 mg/kg, ip by LC-MS analysis; assay type: ADME, organism-based; settings: in vivo, read-out: Fabs
MMP9 = MMP9 (Homo sapiens, UniProt P14780); assay: Inhibition of human MMP9 assessed as residual activity using Mca-PLGL-(DapDnp)-AR-NH2 as substrate at 200 uM by fluorescence assay relative to control; settings: human MMP9 enzyme, probe Mca-PLGL-(DapDnp)-AR-NH2, read-out: Activity
[2] = Tmax in Sprague-Dawley rat at 5 mg/kg, po by LC-MS analysis; assay type: ADME, organism-based; settings: in vivo
ADAM17 = ADAM17 (Homo sapiens, UniProt P78536); assay: Inhibition of human ADAM17 assessed as residual activity using Abz-LANAVRSSSR-(DapDnp)-AR-NH2 as substrate at 200 uM by fluorescence assay relative to control; settings: human ADAM17 enzyme, probe Abz-LANAVRSSSR-(DapDnp)-AR-NH2, read-out: Activity
MMP13 = MMP13 (Homo sapiens, UniProt P45452); assay: Inhibition of human MMP13 assessed as residual activity using Mca-PLGL-(DapDnp)-AR-NH2 as substrate at 200 uM by fluorescence assay relative to control; settings: human MMP13 enzyme, probe Mca-PLGL-(DapDnp)-AR-NH2, read-out: Activity
MMP2 = MMP2 (Homo sapiens, UniProt P08253); assay: Inhibition of human MMP2 assessed as residual activity using Mca-PLGL-(DapDnp)-AR-NH2 as substrate at 200 uM by fluorescence assay relative to control; settings: human MMP2 enzyme, probe Mca-PLGL-(DapDnp)-AR-NH2, read-out: Activity
[3] = Cmax in Sprague-Dawley rat at 10 mg/kg, ip by LC-MS analysis; assay type: ADME, organism-based; parameters: dose 10 mg/kg, route intraperitoneal; settings: in vivo
[4] = Clearance in Sprague-Dawley rat at 6 mg/kg, iv by LC-MS analysis; assay type: ADME, organism-based; settings: in vivo
[5] = Tmax in Sprague-Dawley rat at 10 mg/kg, ip by LC-MS analysis; assay type: ADME, organism-based; settings: in vivo
HepG2 = assay: Cytotoxicity in human HepG2 cells assessed as cell viability at 100 uM after 24 hrs by CytoTox-ONE-based assay relative to control; assay type: functional; settings: HepG2, 24 h, read-out: Activity
meprin alpha = target: T1, meprin alpha (Homo sapiens, UniProt Q16819); assay: Inhibition of recombinant human meprin alpha expressed in insect cells assessed as residual activity using Abz-YVADAPK(Dnp)G-OH as substrate at 200 uM by fluorescence assay relative to control; settings: probe Abz-YVADAPK(Dnp)G-OH, read-out: Activity
T1 sequence (Q16819 whole entry): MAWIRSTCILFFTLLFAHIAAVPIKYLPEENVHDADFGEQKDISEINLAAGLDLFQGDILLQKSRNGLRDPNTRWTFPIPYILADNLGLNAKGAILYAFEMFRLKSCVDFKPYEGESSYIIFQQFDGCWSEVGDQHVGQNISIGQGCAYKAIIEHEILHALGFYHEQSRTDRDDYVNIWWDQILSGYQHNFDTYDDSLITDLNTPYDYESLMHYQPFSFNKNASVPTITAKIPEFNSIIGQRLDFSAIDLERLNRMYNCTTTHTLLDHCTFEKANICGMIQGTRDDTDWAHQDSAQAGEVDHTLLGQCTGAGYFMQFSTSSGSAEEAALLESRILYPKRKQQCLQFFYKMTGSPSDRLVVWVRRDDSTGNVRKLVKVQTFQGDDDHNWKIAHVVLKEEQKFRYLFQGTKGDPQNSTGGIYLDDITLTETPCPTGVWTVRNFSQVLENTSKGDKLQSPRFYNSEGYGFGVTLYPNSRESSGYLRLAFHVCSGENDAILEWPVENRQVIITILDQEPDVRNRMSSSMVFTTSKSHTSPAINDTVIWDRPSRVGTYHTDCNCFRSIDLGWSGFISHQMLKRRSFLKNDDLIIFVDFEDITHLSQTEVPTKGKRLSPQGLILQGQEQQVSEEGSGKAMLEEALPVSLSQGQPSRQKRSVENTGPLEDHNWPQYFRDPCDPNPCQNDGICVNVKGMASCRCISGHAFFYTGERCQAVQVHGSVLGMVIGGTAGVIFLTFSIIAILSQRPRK

CYP3A4 = CYP3A4 (Homo sapiens, UniProt P08684); assay: Inhibition of recombinant human CYP3A4 expressed in baculosomes assessed as residual activity at 25 uM using BOMCC substrate by fluorescence assay relative to control; assay type: ADME; settings: probe BOMCC, read-out: Activity
Homo sapiens = species on record: Homo sapiens; assay: Selectivity ratio of IC50 for recombinant human meprin alpha expressed in insect cells to IC50 for recombinant human meprin beta expressed in yeast
[6] = Half life in Sprague-Dawley rat at 6 mg/kg, iv by LC-MS analysis; assay type: ADME, organism-based; settings: in vivo
[7] = Volume of distribution at steady state in Sprague-Dawley rat at 6 mg/kg, iv by LC-MS analysis; assay type: ADME, organism-based; settings: in vivo, read-out: Vdss
[8] = Cmax in Sprague-Dawley rat at 5 mg/kg, po by LC-MS analysis; assay type: ADME, organism-based; parameters: dose 5 mg/kg, route oral; settings: in vivo
ADAM10 = target: T2, ADAM10 (Homo sapiens, UniProt O14672); assay: Inhibition of human ADAM10 assessed as residual activity using Abz-LANAVRSSSR-(DapDnp)-AR-NH2 as substrate at 200 uM by fluorescence assay relative to control; settings: human ADAM10 enzyme, probe Abz-LANAVRSSSR-(DapDnp)-AR-NH2, read-out: Activity
T2 sequence (O14672 whole entry): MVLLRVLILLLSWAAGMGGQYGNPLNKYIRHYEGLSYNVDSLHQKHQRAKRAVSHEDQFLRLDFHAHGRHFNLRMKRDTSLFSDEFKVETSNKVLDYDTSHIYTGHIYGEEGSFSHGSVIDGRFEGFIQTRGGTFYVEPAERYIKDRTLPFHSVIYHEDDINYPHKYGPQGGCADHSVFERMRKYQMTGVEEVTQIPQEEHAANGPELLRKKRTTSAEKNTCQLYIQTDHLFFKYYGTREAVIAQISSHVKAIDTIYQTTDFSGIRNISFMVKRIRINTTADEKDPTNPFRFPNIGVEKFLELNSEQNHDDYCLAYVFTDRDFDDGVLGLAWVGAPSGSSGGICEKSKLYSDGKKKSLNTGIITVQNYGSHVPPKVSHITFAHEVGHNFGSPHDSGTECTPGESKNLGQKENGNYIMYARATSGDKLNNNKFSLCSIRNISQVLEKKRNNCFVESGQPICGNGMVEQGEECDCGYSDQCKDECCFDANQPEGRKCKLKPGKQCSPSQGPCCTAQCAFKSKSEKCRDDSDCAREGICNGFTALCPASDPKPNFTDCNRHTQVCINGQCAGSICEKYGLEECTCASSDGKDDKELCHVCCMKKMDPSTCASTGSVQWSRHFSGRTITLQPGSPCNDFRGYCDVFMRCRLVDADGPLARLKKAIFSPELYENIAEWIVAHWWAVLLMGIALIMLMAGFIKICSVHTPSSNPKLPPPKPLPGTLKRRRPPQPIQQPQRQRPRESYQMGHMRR

Rattus norvegicus = assay: Volume of distribution in Sprague-Dawley rat at 5 mg/kg, po by LC-MS analysis; assay type: ADME, organism-based; settings: in vivo

Chain of MMP2 (P08253 whole entry): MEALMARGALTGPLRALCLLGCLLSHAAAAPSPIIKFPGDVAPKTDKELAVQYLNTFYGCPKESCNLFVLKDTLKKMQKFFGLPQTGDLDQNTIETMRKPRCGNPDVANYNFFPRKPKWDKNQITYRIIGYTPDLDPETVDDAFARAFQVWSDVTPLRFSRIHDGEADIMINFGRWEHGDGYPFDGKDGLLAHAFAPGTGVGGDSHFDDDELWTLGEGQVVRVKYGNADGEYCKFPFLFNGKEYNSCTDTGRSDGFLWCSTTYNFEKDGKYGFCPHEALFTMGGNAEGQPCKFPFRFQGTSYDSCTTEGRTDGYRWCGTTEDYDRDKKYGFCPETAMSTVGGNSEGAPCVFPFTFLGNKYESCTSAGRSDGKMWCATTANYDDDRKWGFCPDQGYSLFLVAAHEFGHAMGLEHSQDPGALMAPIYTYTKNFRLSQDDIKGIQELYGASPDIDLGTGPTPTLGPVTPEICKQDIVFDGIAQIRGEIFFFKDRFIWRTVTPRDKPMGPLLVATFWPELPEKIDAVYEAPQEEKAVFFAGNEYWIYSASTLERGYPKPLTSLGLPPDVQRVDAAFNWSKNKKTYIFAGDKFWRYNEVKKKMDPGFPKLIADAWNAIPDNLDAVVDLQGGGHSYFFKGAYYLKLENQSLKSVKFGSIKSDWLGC
Chain of CYP3A4 (P08684 whole entry): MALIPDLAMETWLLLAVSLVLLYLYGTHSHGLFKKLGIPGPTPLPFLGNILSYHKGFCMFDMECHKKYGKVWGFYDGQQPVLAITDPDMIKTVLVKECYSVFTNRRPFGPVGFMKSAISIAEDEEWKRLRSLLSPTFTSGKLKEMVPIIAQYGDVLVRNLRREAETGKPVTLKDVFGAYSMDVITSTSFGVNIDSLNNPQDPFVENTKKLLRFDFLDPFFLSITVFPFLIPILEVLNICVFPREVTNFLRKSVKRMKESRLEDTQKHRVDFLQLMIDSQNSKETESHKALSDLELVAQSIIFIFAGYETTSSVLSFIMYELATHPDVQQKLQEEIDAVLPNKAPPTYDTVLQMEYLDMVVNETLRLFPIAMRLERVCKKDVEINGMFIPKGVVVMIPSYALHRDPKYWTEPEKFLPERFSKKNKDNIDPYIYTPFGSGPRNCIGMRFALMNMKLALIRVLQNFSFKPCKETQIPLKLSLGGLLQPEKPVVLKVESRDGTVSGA
Chain of MMP9 (P14780 whole entry): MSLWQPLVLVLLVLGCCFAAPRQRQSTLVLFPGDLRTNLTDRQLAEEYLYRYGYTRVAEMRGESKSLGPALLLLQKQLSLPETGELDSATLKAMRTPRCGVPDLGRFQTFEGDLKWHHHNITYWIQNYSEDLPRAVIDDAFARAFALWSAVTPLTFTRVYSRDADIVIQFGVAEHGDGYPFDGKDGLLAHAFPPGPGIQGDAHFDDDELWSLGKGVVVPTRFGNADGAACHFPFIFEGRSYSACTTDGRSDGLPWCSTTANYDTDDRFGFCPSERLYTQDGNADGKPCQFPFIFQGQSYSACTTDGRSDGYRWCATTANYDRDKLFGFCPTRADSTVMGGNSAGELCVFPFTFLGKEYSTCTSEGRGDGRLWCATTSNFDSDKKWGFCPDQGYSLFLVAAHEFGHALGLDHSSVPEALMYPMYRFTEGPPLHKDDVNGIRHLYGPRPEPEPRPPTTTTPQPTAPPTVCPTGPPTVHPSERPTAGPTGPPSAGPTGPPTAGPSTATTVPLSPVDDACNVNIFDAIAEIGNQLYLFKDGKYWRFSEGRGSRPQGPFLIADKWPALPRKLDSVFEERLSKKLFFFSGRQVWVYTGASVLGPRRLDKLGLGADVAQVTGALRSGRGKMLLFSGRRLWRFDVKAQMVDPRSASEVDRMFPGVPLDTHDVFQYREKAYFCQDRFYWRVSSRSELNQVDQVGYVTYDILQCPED
Chain of ADAM17 (P78536 whole entry): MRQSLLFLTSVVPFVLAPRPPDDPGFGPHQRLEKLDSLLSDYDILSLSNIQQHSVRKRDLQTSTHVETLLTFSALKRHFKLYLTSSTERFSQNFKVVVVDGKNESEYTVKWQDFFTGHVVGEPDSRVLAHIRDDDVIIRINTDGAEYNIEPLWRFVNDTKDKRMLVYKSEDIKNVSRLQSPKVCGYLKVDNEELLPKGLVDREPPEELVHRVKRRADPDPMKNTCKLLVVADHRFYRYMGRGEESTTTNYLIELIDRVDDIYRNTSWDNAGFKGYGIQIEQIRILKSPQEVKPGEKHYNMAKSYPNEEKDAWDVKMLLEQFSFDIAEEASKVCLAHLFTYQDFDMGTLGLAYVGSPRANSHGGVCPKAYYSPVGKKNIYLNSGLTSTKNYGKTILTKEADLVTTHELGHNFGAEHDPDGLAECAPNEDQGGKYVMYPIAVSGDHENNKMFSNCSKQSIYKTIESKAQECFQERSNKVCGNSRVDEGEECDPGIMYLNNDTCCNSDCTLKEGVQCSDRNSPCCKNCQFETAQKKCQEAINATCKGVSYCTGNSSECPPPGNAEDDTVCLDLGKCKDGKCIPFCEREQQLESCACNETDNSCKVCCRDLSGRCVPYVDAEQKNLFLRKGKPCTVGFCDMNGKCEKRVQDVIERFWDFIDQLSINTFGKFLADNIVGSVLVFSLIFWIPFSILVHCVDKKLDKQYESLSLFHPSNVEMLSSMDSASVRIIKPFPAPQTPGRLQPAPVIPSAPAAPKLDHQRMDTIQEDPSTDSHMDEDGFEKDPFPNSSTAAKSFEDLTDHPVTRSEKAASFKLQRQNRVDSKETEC

Q: For `O=C(CN(Cc1cccc(C(=O)O)c1)Cc1cccc(C(=O)O)c1)NO`, which Fa [1] is on record?
A: 84%

Q: What about the activity at 200 µM (MMP9) of the same molecule?
A: 74%

Q: And the Tmax [2]?
A: 10.2 min

Q: What about the activity at 200 µM (ADAM17) of the same molecule?
A: 76%

Q: And the activity at 200 µM (MMP13)?
A: 78%

Q: What about the activity at 200 µM (MMP2) of the same molecule?
A: 64%

Q: What about the Cmax [3] of the same molecule?
A: 6460 ng/mL

Q: And the clearance [4]?
A: 29.7 mL/min/kg

Q: What about the Tmax [5] of the same molecule?
A: 7.2 min

Q: And the viability at 100 µM (HepG2)?
A: 97%

Q: What about the activity at 200 µM (meprin alpha) of the same molecule?
A: < 10%

Q: What about the activity at 25 µM (CYP3A4) of the same molecule?
A: 86%

Q: And the Ratio IC50 (Homo sapiens)?
A: 300

Q: And the half-life [6]?
A: 150 min

Q: What about the Vd [7] of the same molecule?
A: 0.42 L/kg

Q: And the Cmax [8]?
A: 340 ng/mL

Q: What about the activity at 200 µM (ADAM10) of the same molecule?
A: 93%

Q: What about the Vd (Rattus norvegicus) of the same molecule?
A: 0.073 L
